Experimental data taken from patent US20230346889A9, “TREATMENT OF ACUTE HEART FAILURE” (AnaCardio R&D AB, priority 2019, published 2023).
“And” between values parts separate entries of the source, which are not always exact repeats. Equal entries are not always repeated. “Also recorded” adds a separate entry of the source.

How the values were obtained:
Assay type in all cases: in vivo, human
[1] = Plasma acyl ghrelin pharmacokinetics (custom ELISA)
Method: In samples dedicated for ghrelin measurements a protease inhibitor cocktail was prepared, consisting of 5.5 μl 10 mM KR-62436 (DPP4 inhibitor) in DMSO and a SIGMAFAST® protease inhibitor tablet (both produced by Sigma-Aldrich Corp., St. Louis, Mo., USA) dissolved in 2100 μl of distilled water (50×stock). Blood samples were drawn using 6 mL EDTA plasma tubes, immediately put on ice and 160 μl of the 50×protease inhibitor cocktail was added. Tubes were vortexed for 10 seconds and centrifuged at 4° C., 10 min, 2500 relative centrifugal force (RCF, or g). The resulting supernatant (plasma) was then pipetted into Eppendorf tubes (450 μl each) and immediately frozen at −70° C. until analyzed.
Plasma concentrations of active (acylated) ghrelin were assayed by a custom ELISA using electrochemiluminescence detection. Plasma samples were thawed and vortexed. They were then analyzed in duplicate on 96-well multispot plates (Meso Scale Diagnostics, Rockville, Md., USA) coated with capture antibodies against acyl-ghrelin according to manufacturer instructions. The Meso Scale Diagnostics Sector Imager 2400 was used to read the plates. The coefficients of variation (CV %) calculated from plasma concentrations after curve fitting were 9.3/3.5 (intra/inter-assay CV %). The lower limit of detection was 3.2 ng/L and upper limit was set at 10,000 ng/L.

[2] = test system: patients with advanced CHF and reduced EF; experiment: Trial QTc interval (12-lead ECG, Bazett)
Method: A plethysmographic based (finger-cuff) approach was used to measure blood pressure (Nexfin®, BMEYE B.V., Amsterdam, The Netherlands). Nexfin was also used for heart rate monitoring. Heart rate and blood pressure data were measured continuously, beat-by-beat, throughout the study protocol. The data was then averaged over 15 minutes following the Innocor measurements. In addition EKG was assessed before start of and during infusion at 60 and 120 minutes and after the ad lib lunch. QT intervals were measured in the precordial lead V5 in 12-lead surface ECGs, at 50 mm/sec paper speed and 10 mm/mV amplitude. Heart rate corrected QT intervals (QTc) were manually calculated with the Bazett formula, QTc=QT/RR^1/2, using the RR interval preceding the measured QT interval. The mean QTc from 3 heart beats was recorded.
(§1) The difference in change in heart rate between the groups was quantified. Bradycardia was defined as a reduction in heart rate of >15 beats per minute, to a heart rate <40 beats per minute, an increase in PQ time by >20 ms, or AV block II-III. In individual patients, tachycardia was defined as an increase in heart rate by >10 beats per minute or heart rate >110 beats per minute. Ventricular extraystoles were quantified and ventricular tachycardia was defined as non-sustained if ≥3 beats in a row up to ≤30 seconds, and sustained if >30 seconds. Supra-ventricular arrhythmia was defined as ectopic atrial tachycardia, atrial flutter or atrial fibrillation, or AV-nodal tachycardia of >3 seconds duration. Ghrelin may […] hERG channels and as such cause a prolongation of the QTc interval on the EKG, which theoretically could predispose to arrhythmia. Therefor we monitored QTc.

[3] = test system: patients with advanced CHF and reduced EF; experiment: Trial safety and clinical outcomes (hypotension, arrhythmia, ischemia, symptoms, events)
Method: Safety outcomes included reduction in systolic blood pressure, hypotension, and symptomatic hypotension, prolongation of the QTc, ischemia, and arrhythmia during or after infusion, and clinical outcomes.
The following symptoms were assessed as yes or no prior to infusion and after 30, 60, 120 min and 30 min after infusion and at the 2-5 days follow-up; headache, dizziness, dyspnea, central chest pain, flush, sleepiness, upset stomach and other symptoms. The following signs were recorded prior to start of infusion and after lunch; rales, peripheral oedema, jugular venous distension, hepatomegaly and S3 gallop.
Hypotension was assessed in two ways: The difference in change in blood pressure between the groups was quantified, and hypotension in any one patient was defined as a drop of systolic blood pressure of >20 mm Hg or to <80 mm Hg.
as §1
Ischemia was assessed in two ways: The difference in change in troponin T between the groups was quantified, and ischemia in any one patient was defined as symptoms of ECG changes consistent with ischemia, or a rise in troponin T of >50%.
Patients were followed in the medical record until 30 Apr. 2017. Outcomes were freedom from all-cause death; all cause death or HF hospitalization; all cause death or heart transplantation or left ventricular assist device, and a combination of all these.

[4] = After infusion, prior to discharge

Compound: CCCCCCCC(=O)OC[C@H](NC(=O)[C@H](CO)NC(=O)CN)C(=O)N[C@@H](Cc1ccccc1)C(=O)N[C@@H](CC(C)C)C(=O)N[C@@H](CO)C(=O)N1CCC[C@H]1C(=O)N[C@@H](CCC(=O)O)C(=O)N[C@@H](Cc1cnc[nH]1)C(=O)N[C@@H](CCC(N)=O)C(=O)N[C@@H](CCCNC(=N)N)C(=O)N[C@H](C(=O)N[C@@H](CCC(N)=O)C(=O)N[C@@H](CCC(N)=O)C(=O)N[C@@H](CCCNC(=N)N)C(=O)N[C@@H](CCCCN)C(=O)N[C@@H](CCC(=O)O)C(=O)N[C@@H](CO)C(=O)N[C@@H](CCCCN)C(=O)N[C@@H](CCCCN)C(=O)N1CCC[C@H]1C(=O)N1CCC[C@H]1C(=O)N[C@@H](C)C(=O)N[C@@H](CCCCN)C(=O)N[C@@H](CC(C)C)C(=O)N[C@@H](CCC(N)=O)C(=O)N1CCC[C@H]1C(=O)N[C@@H](CCCNC(=N)N)C(=O)O)C(C)C [Ghrelin]
- plasma acyl ghrelin ([1]; 2-5 days follow-up): normalized
- plasma acyl ghrelin ([1]; 30 minutes after infusion): near normalized
- median plasma acyl ghrelin concentrations ([1]; during infusion, treatment group): quickly reached near the maximum of the assay
- level at 0.5 h ([1]; human, plasma, 0.1 ug/kg/min, Infusion 30 min, iv 0.1 μg/kg/min, read-out: plasma acyl ghrelin (median, interquartile range)): 6.11 ng/mL
- level at 1 h ([1]; human, plasma, iv, 0.1 ug/kg/min, Infusion 60 min, read-out: plasma acyl ghrelin (median, interquartile range)): 6.84 ng/mL
- level at 2 h ([1]; human, plasma, iv, 0.1 ug/kg/min, Infusion 120 min, read-out: plasma acyl ghrelin (median, interquartile range)): 6.54 ng/mL
- Maximal QTc prolongation from baseline ([2]; 2-5 days after): +47 ms
- Median (interquartile range) changes in QTc from baseline ([2]; 2-5 days after): −4 (−34 to +4) ms
- Maximal QTc prolongation from baseline [2, 4]: +47 ms
- Median (interquartile range) changes in QTc from baseline [2, 4]: +18 (−10 to +30) ms
- Maximal QTc prolongation from baseline ([2]; During infusion, 60 minutes): +36 ms
- Median (interquartile range) changes in QTc from baseline ([2]; During infusion, 60 minutes): +4 (−7 to +21) ms
- Maximal QTc prolongation from baseline ([2]; During infusion, 120 minutes): +45 ms
- Median (interquartile range) changes in QTc from baseline ([2]; During infusion, 120 minutes): +8 (−4 to +26) ms
- change in QTc ([2]; in vivo): nominal but not significant increase
- troponin T in the one patient with >50% increase ([3]; Baseline): 31 ng/L
- patients with flush ([3]; at 60 min, vs. 0 placebo, p=0.006): 7
- troponin T in the one patient with >50% increase ([3]; at FU): 164 ng/L
- incidence of hypotension ([3]; drop of systolic BP >20 mm Hg or to <80 mm Hg): no incidence of hypotension; also recorded: no events of hypotension or symptomatic hypotension
- troponin T in the one patient with >50% increase ([3]; during infusion (successive samples)): 38 ng/L and 42 ng/L and 43 ng/L and 34 ng/L
- patients with a >50% increase in troponin T ([3]; ghrelin group (n = 15)): One
- effect on heart rate ([3]; human, in vivo): no effect
- incidence of ventricular tachy or brady arrhythmias ([3]; human, in vivo): no effect
- symptoms or EKG changes consistent with ischemia ([3]; human, in vivo): no symptoms or EKG changes consistent with ischemia
- clinical events vs placebo ([3]; over 90 days follow-up): no differences in clinical events
